Data published in patent US7446091B2, “Methods and preparations for curing clinically ill patients” (Novo Nordisk A/S, priority 2000, dated 2008).

Tested on: patients treated in the ICU
Assay: Example 1: prospective clinical study, weekly EMG screening for CIPNP in long-stay ICU patients
Assay type: in vivo, human
Settings: for CIPNP-free time on the ICU: long-stay patients
Method: Between Feb. 2 and Apr. 25, 2000, 400 patients were included in the study. […] All other treatments, including feeding regimens, were according to standing orders currently applied within the ICU. Exclusion criteria were age <18y, pregnancy and not being intubated at admission.
When patients were still treated in the ICU after 7 days, a weekly EMG examination was performed to screen for the presence of CIPNP. The EMGs were always interpreted by the same expert in electrophysiology. In order to accurately assess ICU stay, which is often determined by other factors than the patient's condition—e.g. bed availability on the wards—“end of ICU stay” was defined as the day on which the attending physician considers the patient to be “ready for discharge”.

In the case of insulin, the “Long-stay ICU patients with a positive EMG for CIPNP (% of the long stayers)” value (intensive insulin group) was 39%, the “Number of positive EMGs for CIPNP per patient (mean ± SD)” value (intensive insulin group) was 0.9±1.8 and the “Number of positive EMGs for CIPNP per patient (median)” value (intensive insulin group) was “zero”. The “Long-stay ICU patients with a positive EMG for CIPNP at any time during the ICU stay, number” value (intensive insulin group, 38 long-stay patients) was “Fifteen”, the “ICU-mortality, difference between the two treatment groups” value (intensive vs restrictive insulin schedule, P=0.4) was “not detectably different” and the “CIPNP-free time on the ICU” value (intensive insulin group) was 2.1±1.8 weeks. For the same substance, the “CIPNP-free time on the ICU” value (restrictive insulin group) was 1.1±1.2 weeks, the “Long-stay ICU patients with a positive EMG for CIPNP (% of the long stayers)” value (restrictive insulin group) was 67% and the “Number of positive EMGs for CIPNP per patient (mean ± SD)” value (restrictive insulin group) was 1.8±2.1. The “Number of positive EMGs for CIPNP per patient (median)” value (restrictive insulin group) was 1 and the “Long-stay ICU patients with a positive EMG for CIPNP at any time during the ICU stay, number” value (restrictive insulin group, 45 long-stay patients) was 30.
